pIC50: −log10 of the molar value.
System: NCI-H1876 complex spheroid viability
Experiment: Anticancer human tumor NCI-H1876 cell line growth inhibition [LSD1];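 note: spheroids exposed to compounds for one week before readout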;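 for viability, T/C: 100% = DMSO vehicle-treated spheroids so lower means fewer viable cells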
Conditions: for pIC50: curve of first compound; for viability, T/C: stronger effect = lower value
In short: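 Complex spheroids of tumor cells with HUVEC and human MSCs, exposed to iadademstat combined with other agents. Each agent tested in half-log steps from near clinical Cmax (else 10 microM top), DMSO ≤0.25%.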

[1] = second compound 0.1 µM, first compound 0.0316 µM
[2] = second compound 0.1 µM, first compound 0.1 µM
[3] = second compound 0.1 µM, first compound 0.316 µM
[4] = second compound 0.1 µM, first compound 1 µM
[5] = second compound 0.1 µM, first compound 3.16 µM
[6] = second compound 0.1 µM, first compound 10 µM
[7] = second compound 0.316 µM, first compound 0.0316 µM
[8] = second compound 0.316 µM, first compound 0.1 µM
[9] = second compound 0.316 µM, first compound 0.316 µM
[10] = second compound 0.316 µM, first compound 1 µM
[11] = second compound 0.316 µM, first compound 3.16 µM
[12] = second compound 0.316 µM, first compound 10 µM
[13] = second compound 1 µM, first compound 0.0316 µM
[14] = second compound 1 µM, first compound 0.1 µM
[15] = second compound 1 µM, first compound 0.316 µM
[16] = second compound 1 µM, first compound 1 µM
[17] = second compound 1 µM, first compound 3.16 µM
[18] = second compound 1 µM, first compound 10 µM
[19] = second compound 3.16 µM, first compound 0.0316 µM
[20] = second compound 3.16 µM, first compound 0.1 µM
[21] = second compound 3.16 µM, first compound 0.316 µM
[22] = second compound 3.16 µM, first compound 1 µM
[23] = second compound 3.16 µM, first compound 3.16 µM
[24] = second compound 3.16 µM, first compound 10 µM
[25] = second compound 10 µM, first compound 0.0316 µM
[26] = second compound 10 µM, first compound 0.1 µM
[27] = second compound 10 µM, first compound 0.316 µM
[28] = second compound 10 µM, first compound 1 µM
[29] = second compound 10 µM, first compound 3.16 µM
[30] = second compound 10 µM, first compound 10 µM

SMILES | pIC50 (second compound 0.1 µM) | pIC50 (second compound 0.316 µM) | pIC50 (second compound 1 µM) | pIC50 (second compound 3.16 µM) | pIC50 (second compound 10 µM) | viability, T/C [1] | viability, T/C [2] | viability, T/C [3] | viability, T/C [4] | viability, T/C [5] | viability, T/C [6] | viability, T/C [7] | viability, T/C [8] | viability, T/C [9] | viability, T/C [10] | viability, T/C [11] | viability, T/C [12] | viability, T/C [13] | viability, T/C [14] | viability, T/C [15] | further results
CC(C)c1c(-c2ccccc2)nc2c(C#N)c[nH]n2c1=O + NC1CC1c1ccc(-c2cccc(O)c2)cc1 | 5.13 | 5.11 | 5.11 | 5.20 | 5.32 | 97.2% | 96.2% | 97.3% | 93.2% | 87.2% | 36.5% | 99.3% | 102% | 102% | 111% | 91% | 38.2% | 102% | 101% | 101% | viability, T/C [16]: 106%; viability, T/C [17]: 98.5%; viability, T/C [18]: 36.5%; viability, T/C [19]: 101%; viability, T/C [20]: 98.2%; viability, T/C [21]: 96.6%; viability, T/C [22]: 96.5%; viability, T/C [23]: 87.3%; viability, T/C [24]: 24.8%; viability, T/C [25]: 84.7%; viability, T/C [26]: 85.7%; viability, T/C [27]: 91.2%; viability, T/C [28]: 88%; viability, T/C [29]: 73.2%; viability, T/C [30]: 9.44%
O=C(c1cc(Cc2n[nH]c(=O)c3ccccc23)ccc1F)N1CCN(C(=O)C2CC2)CC1 + NC1CC1c1ccc(-c2cccc(O)c2)cc1 | 5.21 | 5.21 | 5.20 | 5.19 | 5.19 | 101% | 99.9% | 98.2% | 90.3% | 68.3% | 36.9% | 103% | 94.9% | 97.7% | 88.3% | 66.8% | 38% | 106% | 99.5% | 98.3% | viability, T/C [16]: 88.2%; viability, T/C [17]: 70.2%; viability, T/C [18]: 36.7%; viability, T/C [19]: 102%; viability, T/C [20]: 96.9%; viability, T/C [21]: 101%; viability, T/C [22]: 88.4%; viability, T/C [23]: 72%; viability, T/C [24]: 36.3%; viability, T/C [25]: 99.5%; viability, T/C [26]: 94.1%; viability, T/C [27]: 93.2%; viability, T/C [28]: 82%; viability, T/C [29]: 69.7%; viability, T/C [30]: 38.6%

From PubChem BioAssay AID1918957 (Molecular Pharmacology Branch, DTP, NCI, 2023)
